Measurements published in ChEMBL document CHEMBL1152723, “Remarkable enhancement in the DNA-binding ability of C2-fluoro substituted pyrrolo[2,1-c][1,4]benzodiazepines and their anticancer potential” (2009).

Legend:
[1] = tested on: BT-549; experiment: Growth inhibition of human BT549 cells after 48 hrs by sulforhodamine B protein assay; type: functional; conditions: BT-549, 48 h
[2] = tested on: MDA-MB-468; experiment: Growth inhibition of human MDA-MB-468 cells after 48 hrs by sulforhodamine B protein assay; type: functional; conditions: MDA-MB-468, 48 h
[3] = tested on: NCI-H460; experiment: Growth inhibition of human NCI-H460 cells after 48 hrs by sulforhodamine B protein assay; type: functional; conditions: NCI-H460, 48 h
[4] = tested on: M14; experiment: Growth inhibition of human M14 cells after 48 hrs by sulforhodamine B protein assay; type: functional; conditions: M14, 48 h
[5] = tested on: ACHN; experiment: Growth inhibition of human ACHN cells after 48 hrs by sulforhodamine B protein assay; type: functional
[6] = tested on: T47D; experiment: Growth inhibition of human T47D cells after 48 hrs by sulforhodamine B protein assay; type: functional
[7] = tested on: HCT-116; experiment: Growth inhibition of human HCT116 cells after 48 hrs by sulforhodamine B protein assay; type: functional; conditions: HCT-116, 48 h
[8] = tested on: UO-31; experiment: Growth inhibition of human UO31 cells after 48 hrs by sulforhodamine B protein assay; type: functional; conditions: UO-31, 48 h
[9] = tested on: OVCAR-8; experiment: Growth inhibition of human OVCAR8 cells after 48 hrs by sulforhodamine B protein assay; type: functional; conditions: OVCAR-8, 48 h
[10] = tested on: KM12; experiment: Growth inhibition of human KM12 cells after 48 hrs by sulforhodamine B protein assay; type: functional; conditions: KM12, 48 h
[11] = tested on: SW-620; experiment: Growth inhibition of human SW620 cells after 48 hrs by sulforhodamine B protein assay; type: functional; conditions: SW-620, 48 h
[12] = tested on: OVCAR-5; experiment: Growth inhibition of human OVCAR5 cells after 48 hrs by sulforhodamine B protein assay; type: functional; conditions: OVCAR-5, 48 h
[13] = tested on: OVCAR-4; experiment: Growth inhibition of human OVCAR4 cells after 48 hrs by sulforhodamine B protein assay; type: functional; conditions: OVCAR-4, 48 h
[14] = tested on: SK-MEL-2; experiment: Growth inhibition of human SK-MEL-2 cells after 48 hrs by sulforhodamine B protein assay; type: functional; conditions: SK-MEL-2, 48 h
[15] = tested on: MCF7; experiment: Growth inhibition of human MCF7 cells after 48 hrs by sulforhodamine B protein assay; type: functional; conditions: MCF7, 48 h
[16] = tested on: HOP-62; experiment: Growth inhibition of human HOP62 cells after 48 hrs by sulforhodamine B protein assay; type: functional; conditions: HOP-62, 48 h
[17] = tested on: K562; experiment: Growth inhibition of human K562 cells after 48 hrs by sulforhodamine B protein assay; type: functional; conditions: K562, 48 h
[18] = tested on: UACC-62; experiment: Growth inhibition of human UACC62 cells after 48 hrs by sulforhodamine B protein assay; type: functional; conditions: UACC-62, 48 h
[19] = tested on: NCI-H226; experiment: Growth inhibition of human NCI-H226 cells after 48 hrs by sulforhodamine B protein assay; type: functional; conditions: NCI-H226, 48 h
[20] = tested on: CCRF-CEM; experiment: Growth inhibition of human CCRF-CEM cells after 48 hrs by sulforhodamine B protein assay; type: functional
[21] = tested on: SNB-75; experiment: Growth inhibition of human SNB75 cells after 48 hrs by sulforhodamine B protein assay; type: functional; conditions: SNB-75, 48 h
[22] = tested on: LOX IMVI; experiment: Growth inhibition of human LOXIMVI cells after 48 hrs by sulforhodamine B protein assay; type: functional
[23] = tested on: U-251; experiment: Growth inhibition of human U251 cells after 48 hrs by sulforhodamine B protein assay; type: functional; conditions: U-251, 48 h
[24] = tested on: DNA; experiment: Binding affinity to calf thymus DNA assessed as change in melting temperature at a compound to DNA molar ratio of 1:5 at pH 7 by thermal denaturation assay; type: nucleic-acid assay; conditions: Bos taurus
[25] = tested on: SK-MEL-5; experiment: Growth inhibition of human SK-MEL-5 cells after 48 hrs by sulforhodamine B protein assay; type: functional; conditions: SK-MEL-5, 48 h
[26] = tested on: NCI-H23; experiment: Growth inhibition of human NCI-H23 cells after 48 hrs by sulforhodamine B protein assay; type: functional; conditions: NCI-H23, 48 h
[27] = tested on: Malme-3M; experiment: Growth inhibition of human MALME-3M cells after 48 hrs by sulforhodamine B protein assay; type: functional
[28] = tested on: HCT-15; experiment: Growth inhibition of human HCT15 cells after 48 hrs by sulforhodamine B protein assay; type: functional; conditions: HCT-15, 48 h
[29] = tested on: OVCAR-3; experiment: Growth inhibition of human OVCAR-3 cells after 48 hrs by sulforhodamine B protein assay; type: functional; conditions: OVCAR-3, 48 h
[30] = tested on: NCI-H322M; experiment: Growth inhibition of human NCI-H322M cells after 48 hrs by sulforhodamine B protein assay; type: functional
[31] = tested on: HCC 2998; experiment: Growth inhibition of human HCC2998 cells after 48 hrs by sulforhodamine B protein assay; type: functional; conditions: HCC 2998, 48 h
[32] = tested on: TK-10; experiment: Growth inhibition of human TK10 cells after 48 hrs by sulforhodamine B protein assay; type: functional; conditions: TK-10, 48 h
[33] = tested on: RXF 393; experiment: Growth inhibition of human […] cells after 48 hrs by sulforhodamine B protein assay; type: functional; conditions: RXF 393, 48 h
[34] = tested on: HT-29; experiment: Growth inhibition of human HT-29 cells after 48 hrs by sulforhodamine B protein assay; type: functional; conditions: HT-29, 48 h
[35] = tested on: A498; experiment: Growth inhibition of human A498 cells after 48 hrs by sulforhodamine B protein assay; type: functional; conditions: A498, 48 h
[36] = tested on: DU-145; experiment: Growth inhibition of human DU145 cells after 48 hrs by sulforhodamine B protein assay; type: functional; conditions: DU-145, 48 h
[37] = tested on: NCI-H522; experiment: Growth inhibition of human NCI-H522 cells after 48 hrs by sulforhodamine B protein assay; type: functional; conditions: NCI-H522, 48 h
[38] = tested on: CAKI-1; experiment: Growth inhibition of human Caki1 cells after 48 hrs by sulforhodamine B protein assay; type: functional; conditions: CAKI-1, 48 h
[39] = tested on: MOLT-4; experiment: Growth inhibition of human MOLT4 cells after 48 hrs by sulforhodamine B protein assay; type: functional; conditions: MOLT-4, 48 h
[40] = tested on: SNB-19; experiment: Growth inhibition of human SNB19 cells after 48 hrs by sulforhodamine B protein assay; type: functional; conditions: SNB-19, 48 h
[41] = tested on: A549; experiment: Growth inhibition of human A549 cells after 48 hrs by sulforhodamine B protein assay; type: functional; conditions: A549, 48 h
[42] = tested on: MDA-MB-231; experiment: Growth inhibition of human MDA-MB-231 cells after 48 hrs by sulforhodamine B protein assay; type: functional; conditions: MDA-MB-231, 48 h
[43] = Growth inhibition of human Hs 578T cells after 48 hrs by sulforhodamine B protein assay; type: functional
[44] = tested on: SK-MEL-28; experiment: Growth inhibition of human SK-MEL-28 cells after 48 hrs by sulforhodamine B protein assay; type: functional; conditions: SK-MEL-28, 48 h
[45] = tested on: SR; experiment: Growth inhibition of human SR cells after 48 hrs by sulforhodamine B protein assay; type: functional
[46] = tested on: SK-OV-3; experiment: Growth inhibition of human SKOV3 cells after 48 hrs by sulforhodamine B protein assay; type: functional; conditions: SK-OV-3, 48 h
[47] = tested on: HL-60(TB); experiment: Growth inhibition of human HL-60(TB) cells after 48 hrs by sulforhodamine B protein assay; type: functional; conditions: HL-60, 48 h
[48] = tested on: MDA-MB-435; experiment: Growth inhibition of human MDA-MB-435 cells after 48 hrs by sulforhodamine B protein assay; type: functional; conditions: MDA-MB-435, 48 h

Molecule COc1cc2c(cc1OCCCN1CCN(CCCOc3cc4c(cc3OC)C(=O)N3CC(F)C[C@H]3C=N4)CC1)N=C[C@@H]1CC(F)CN1C2=O (stereo partly drawn) has a GI50 [1] of less than 90 nM, a GI50 [2] of less than 10 nM and a GI50 [3] of less than 10 nM. It also gave a GI50 [4] of less than 30 nM, a GI50 [5] of 150 nM and a GI50 [6] of less than 10 nM. It also gave a GI50 [7] of less than 20 nM, a GI50 [8] of 1030 nM and a GI50 [9] of 100 nM. For the same molecule, the GI50 [10] was 100 nM, the GI50 [11] was less than 50 nM and the GI50 [12] was 160 nM. It also gave a GI50 [13] of 460 nM, a GI50 [14] of 500 nM and a GI50 [15] of less than 10 nM. It also gave a GI50 [16] of less than 10 nM, a GI50 [17] of less than 10 nM and a GI50 [18] of less than 80 nM. It also gave a GI50 [19] of 100 nM, a GI50 [20] of less than 10 nM and a GI50 [21] of less than 30 nM. For the same molecule, the GI50 [22] was less than 10 nM, the GI50 [23] was less than 10 nM and the ΔTm [24] was 37 °C. It also gave a GI50 [25] of less than 40 nM, a GI50 [26] of less than 30 nM and a GI50 [27] of less than 20 nM. It also gave a GI50 [28] of 2560 nM, a GI50 [29] of less than 40 nM and a GI50 [30] of 260 nM. It also gave a GI50 [31] of 110 nM, a GI50 [32] of 250 nM and a GI50 [33] of 110 nM. For the same molecule, the GI50 [34] was 170 nM, the GI50 [35] was less than 60 nM and the GI50 [36] was 40 nM. It also gave a GI50 [37] of less than 10 nM, a GI50 [38] of 20 nM and a GI50 [39] of less than 10 nM. For the same molecule, the GI50 [40] was less than 20 nM, the GI50 [41] was 120 nM and the GI50 [42] was 130 nM. The GI50 [43] was less than 40 nM, the GI50 [44] was less than 30 nM and the GI50 [45] was less than 10 nM. For the same molecule, the GI50 [46] was less than 70 nM, the GI50 [47] was less than 10 nM and the GI50 [48] was less than 30 nM.
